Measurements published in patent publication US5330973A, “Lipopeptide derivatives” (Merck & Co., Inc., priority 1990, dated 1994).

Tests used:
[1] = system: Pneumocystis carinii; assay: Pneumocystis carinii pneumonia in immunosuppressed rats, elimination of cysts; type: in vivo, Sprague-Dawley rats; settings: I.P. twice daily for four days, lungs read by microscopic analysis of stained slides
Procedure: In a representative study, the effectiveness of Compound A-2a was determined. Sprague-Dawley rats (weighing approximately 250 grams) were immuno-suppressed with dexasone in the drinking water (2.0 mg/L) and maintained on a low protein diet for five weeds to induce the development of pneumocystis pneumonia from a latent infection. […] Six rats (weighing approximately 150 grams) were injected twice daily for four days intraperitoneally (I.P.) with Compound A-2a in 0.25 ml of vehicle (distilled water). A vehicle control was also carried out. All animals continued to receive dexasone in the drinking water and low protein diet during the treatment period. At the completion of the treatment, all animals were sacrificed, the lungs were removed and processed, and the extent of disease determined by microscopic analysis of stained slides.
In a similar experiment, the animals were sacrificed, the lungs removed and processed, and the extent of disease determined by microscopic analysis of stained slides.

[2] = system: C. tropicalis; assay: Minimum fungicidal concentration, microbroth dilution assay in YNBD; type: cell-based; settings: C. tropicalis MY 1012
Procedure: (§1) The compounds of the present invention are active against many fungi and particularly against Candida species. […] In carrying out the assay, Compound A-2a and A-3a were solubilized in 10% dimethyl sulfoxide (DMSO) and diluted to 2560 μg/ml. The compounds were then diluted to 256 μg/ml in YNBD. […] of the suspension was dispensed to the top row of a 96-well plate (each well containing 0.15 ml of YNDB) resulting in a drug concentration of 128 μg/ml. Two-fold dilutions were then made from the top row to obtain final drug concentrations ranging from 128 to 0.06 μg/ml. The yeast cultures, maintained on Sabouraud dextrose agar were transferred to YM broth (Difco) and incubated overnight at 35° C. with shaking (250 rpm). […] The microplates were incubated at 35° C. for 24 hours. The minimum inhibitory concentrations (MICs) were recorded as the lowest concentrations of drug showing no visible growth. After recording the MIC, the plates were shaken to resuspend the cells. Thereafter, […] samples from the wells in the 96-well microplate were transferred to a single well tray containing Sabouraud dextrose agar. The inoculated trays were incubated 24 hours at 28° C. and then read. […]

[3] = system: C. albicans; assay: as above; type: cell-based
Procedure: as §1

[4] = system: C. parapsilosis; assay: as above; type: cell-based; settings: C. parapsilosis MY 1010
Procedure: as §1

“1-[4-hydroxy-N2-(10,12-dimethyl-1-oxotetradecyl)-ornithine]-4-[3-hydroxy-4' -O-phosphoryl-homotyrosine]-5-[3-hydroxyglutamine]echinocandin B [Compound A-2a]” was tested, and the “ED90 for eliminating P. carinii cysts” value [1] was “approximately 2 mg/kg”, the “Minimum Fungicidal Concentration” value [2] was 0.5 µg/mL and the “Minimum Fungicidal Concentration” value ([3]; C. albicans MY 1028) was 1 µg/mL. The “Minimum Fungicidal Concentration” value ([3]; C. albicans MY 1055) was 1 µg/mL, the “Minimum Fungicidal Concentration” value ([3]; C. albicans MY 1208) was 1 µg/mL and the “Minimum Fungicidal Concentration” value [4] was 16 µg/mL.
In the case of “1-[N2-(10,12-dimethyl-1-oxotetradecyl)-ornithine]-4-[3,4-dihydroxy-4'-O-pho sphoryl-homotyrosine]-5-[3-hydroxyglutamine] echinocandin B [Compound A-3a]”, the “ED90 for eliminating P. carinii cysts” value [1] is reported as “approximately 2.5 mg/kg”, the “Minimum Fungicidal Concentration” value [2] is reported as 1 µg/mL and the “Minimum Fungicidal Concentration” value ([3]; C. albicans MY 1028) is reported as 4 µg/mL. For the same substance, the “Minimum Fungicidal Concentration” value ([3]; C. albicans MY 1055) was 2 µg/mL, the “Minimum Fungicidal Concentration” value ([3]; C. albicans MY 1208) was 4 µg/mL and the “Minimum Fungicidal Concentration” value [4] was greater than 128 µg/mL.
